Where a SMILES comes first, the peptide text is derived from it. Bridges are numbered along the chain shown (N, C = ends). [ ]: non-standard residue; d: D form. The star is where a group is joined. hPhe(3-Cl-4-CF3) = N[C@@H](CCc1ccc(C(F)(F)F)c(Cl)c1)C(=O)O; NPrPhe(4-CF3) = CCCN[C@@H](Cc1ccc(C(F)(F)F)cc1)C(=O)O; NMeGly(cPent) = CN[C@H](C(=O)O)C1CCCC1; Pro(4,4-F2) = O=C(O)[C@@H]1CC(F)(F)CN1; NMeD = CN[C@@H](CC(=O)O)C(=O)O; NMeL = CN[C@@H](CC(C)C)C(=O)O; NEtAla = CCN[C@@H](C)C(=O)O; NMeAbu = CC[C@H](NC)C(=O)O; Morpholide = C1CN(*)CCO1; NMeA = CN[C@@H](C)C(=O)O; Ac5c = NC1(C(=O)O)CCCC1; Aze = O=C(O)[C@@H]1CCN1; Sar = CNCC(=O)O
What was measured:
[1] = target: GDP-bound NRAS wild-type protein (Homo sapiens, UniProt P01111); experiment: Binding to NRAS by surface plasmon resonance (SPR), Single Cycle Kinetics; conditions: SPR; for NRAS/KRAS (ratio of KD value with respect to NRAS to KD value with respect to KRAS) / NRAS/KRAS (ratio of KD value for NRAS to KD value for KRAS): GDP-bound NRAS wild-type vs GDP-bound KRAS wild-type
[2] = target: GDP-bound HRAS wild-type protein (Homo sapiens, UniProt P01112); experiment: Binding to HRAS by surface plasmon resonance (SPR), Single Cycle Kinetics; conditions: SPR; for HRAS/KRAS (ratio of KD value with respect to HRAS to KD value with respect to KRAS) / HRAS/KRAS (ratio of KD value for HRAS to KD value for KRAS): GDP-bound HRAS wild-type vs GDP-bound KRAS wild-type
Chain of GDP-bound HRAS wild-type protein (P01112 whole entry): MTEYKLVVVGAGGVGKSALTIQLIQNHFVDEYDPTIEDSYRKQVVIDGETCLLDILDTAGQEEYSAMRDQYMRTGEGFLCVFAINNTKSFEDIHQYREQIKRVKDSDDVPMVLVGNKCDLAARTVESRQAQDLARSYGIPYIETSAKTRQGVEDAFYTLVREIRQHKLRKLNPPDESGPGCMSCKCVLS

Chain of GDP-bound NRAS wild-type protein (P01111 whole entry): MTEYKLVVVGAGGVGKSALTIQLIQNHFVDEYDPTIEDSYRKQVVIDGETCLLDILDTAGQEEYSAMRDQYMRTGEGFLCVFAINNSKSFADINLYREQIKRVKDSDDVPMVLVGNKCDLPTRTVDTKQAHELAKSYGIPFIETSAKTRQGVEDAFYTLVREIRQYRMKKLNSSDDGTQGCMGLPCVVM

Compound: CC[C@H](C)[C@@H]1NC(=O)[C@H](CC(C)C)N(C)C(=O)C[C@@H](C(=O)N2CCOCC2)N(C)C(=O)[C@H](C2CCCC2)N(C)C(=O)C2(CCC2)NC(=O)[C@@H]2[C@@H](OC)CCN2C(=O)[C@H](CCc2cc(F)c(C(F)(F)F)c(F)c2)NC(=O)CN(C)C(=O)[C@H](Cc2ccc(C(F)(F)F)cc2)N2CCCC[C@@H](C2=O)N(C)C(=O)CN(C)C1=O [PP1075]
- NRAS/KRAS (ratio of KD value with respect to NRAS to KD value with respect to KRAS) [1]: B (a compound having 3 or more and less than 10 is denoted as B)
- HRAS/KRAS (ratio of KD value with respect to HRAS to KD value with respect to KRAS) [2]: B (a compound having 3 or more and less than 10 is denoted as B)

Compound: CCCN1C(=O)[C@@H]2CCN2C(=O)[C@H](C)N(CC)C(=O)[C@H]([C@@H](C)CC)NC(=O)[C@H](CC(C)C)N(C)C(=O)C[C@@H](C(=O)N2CCOCC2)N(C)C(=O)[C@H](C2CCCC2)N(C)C(=O)C2(CCCC2)NC(=O)[C@@H]2CCCN2C(=O)[C@H](CCc2ccc(C(F)(F)F)c(Cl)c2)NC(=O)CN(C)C(=O)[C@@H]1Cc1ccc(C(F)(F)F)cc1 [PP0152] ([NMeL]I[NEtAla][Aze][NPrPhe(4-CF3)][Sar][hPhe(3-Cl-4-CF3)]P[Ac5c][NMeGly(cPent)][NMeD]-Morpholide; lactam N-11)
- NRAS/KRAS (ratio of KD for GDP-bound NRAS wild-type to KD for KRAS) [1]: C (A compound having a KD ratio of 0.1 or more and less than 3 is denoted as C)
- HRAS/KRAS (ratio of KD for GDP-bound HRAS wild-type to KD for KRAS) [2]: B (a compound having 3 or more and less than 10 is denoted as B)

Compound: CCCN1C(=O)[C@@H]2CCN2C(=O)[C@H](C)N(C)C(=O)[C@H]([C@@H](C)CC)NC(=O)[C@H](CC)N(C)C(=O)C[C@@H](C(=O)N2CCOCC2)N(C)C(=O)[C@H](C2CCCC2)N(C)C(=O)C2(CCCC2)NC(=O)[C@@H]2CC(F)(F)CN2C(=O)[C@H](CCc2ccc(C(F)(F)F)c(Cl)c2)NC(=O)CN(C)C(=O)[C@@H]1Cc1ccc(C(F)(F)F)cc1 [PP0206] ([NMeAbu]I[NMeA][Aze][NPrPhe(4-CF3)][Sar][hPhe(3-Cl-4-CF3)][Pro(4,4-F2)][Ac5c][NMeGly(cPent)][NMeD]-Morpholide; lactam N-11)
- NRAS/KRAS (ratio of KD for GDP-bound NRAS wild-type to KD for KRAS) [1]: C (A compound having a KD ratio of 0.1 or more and less than 3 is denoted as C)
- HRAS/KRAS (ratio of KD for GDP-bound HRAS wild-type to KD for KRAS) [2]: B (a compound having 3 or more and less than 10 is denoted as B)

Compound: CCO[C@@H]1C[C@H]2C(=O)NC3(CC(C)(C)C3)C(=O)N(C)[C@@H](C3CCCC3)C(=O)N(C)[C@H](C(=O)N(C)CC)CC(=O)N(C)[C@@H](COC)C(=O)N[C@@H]([C@@H](C)CC)C(=O)N(C)CC(=O)N(C)[C@H]3C/C=C\CCN(C3=O)[C@@H](Cc3ccc(C(F)(F)F)cc3)C(=O)N(C)CC(=O)N[C@@H](CCc3ccc(C(F)(F)F)c(OC)c3)C(=O)N2C1 [PP1679]
- NRAS/KRAS (ratio of KD value for NRAS to KD value for KRAS) [1]: A (a compound having 10 or more and less than 20 is denoted as A)
- HRAS/KRAS (ratio of KD value for HRAS to KD value for KRAS) [2]: A (a compound having 10 or more and less than 20 is denoted as A)

Compound: CCO[C@@H]1C[C@H]2C(=O)NC3(CC=CC3)C(=O)N(C)[C@@H](C3CCCC3)C(=O)N(C)[C@H](C(=O)N3CCOCC3)CC(=O)N(C)[C@@H](COC)C(=O)N[C@@H]([C@@H](C)CC)C(=O)N(C)CC(=O)N(C)[C@H]3CCCCCN(C3=O)[C@@H](Cc3ccc(C(F)(F)F)cc3)C(=O)N(C)CC(=O)N[C@@H](CCc3cc(F)c(C(F)(F)F)c(F)c3)C(=O)N2C1 [PP0842]
- NRAS/KRAS (ratio of KD value with respect to NRAS to KD value with respect to KRAS) [1]: B (a compound having 3 or more and less than 10 is denoted as B)
- HRAS/KRAS (ratio of KD value with respect to HRAS to KD value with respect to KRAS) [2]: B (a compound having 3 or more and less than 10 is denoted as B)

Compound: CCO[C@@H]1C[C@H]2C(=O)NC3(CCC3)C(=O)N(C)[C@@H](C3CCCC3)C(=O)N(C)[C@H](C(=O)N(C)C)CC(=O)N(C)[C@@H](CC)C(=O)N[C@@H]([C@@H](C)CC)C(=O)N(C)CC(=O)N(C)[C@H]3C/C=C\CCN(C3=O)[C@@H](Cc3ccc(C(F)(F)F)cc3)C(=O)N(C)CC(=O)N[C@@H](CCc3cc(C)c(Cl)c(C)c3)C(=O)N2C1 [PP1821]
- NRAS/KRAS (ratio of KD value for NRAS to KD value for KRAS) [1]: A (a compound having 10 or more and less than 20 is denoted as A)
- HRAS/KRAS (ratio of KD value for HRAS to KD value for KRAS) [2]: A (a compound having 10 or more and less than 20 is denoted as A)

Compound: CC[C@H](C)[C@@H]1NC(=O)[C@H](CC(F)F)N(C)C(=O)C[C@@H](C(=O)N(C)CC)N(C)C(=O)[C@H](C2CCCC2)N(C)C(=O)C2(CC(C)(C)C2)NC(=O)[C@@H]2C[C@H](C)CN2C(=O)[C@H](CCc2ccc(C(F)(F)F)c(Cl)c2)NC(=O)CN(C)C(=O)[C@H](Cc2ccc(C)cc2)N2CC/C=C\C[C@@H](C2=O)N(C)C(=O)CN(C)C1=O [PP1911]
- NRAS/KRAS (ratio of KD value for NRAS to KD value for KRAS) [1]: A (a compound having 10 or more and less than 20 is denoted as A)
- HRAS/KRAS (ratio of KD value for HRAS to KD value for KRAS) [2]: A (a compound having 10 or more and less than 20 is denoted as A)

Source: US20250230193A1, “CYCLIC COMPOUND HAVING SELECTIVE KRAS INHIBITORY EFFECT ON HRAS AND NRAS” (CHUGAI SEIYAKU KABUSHIKI KAISHA, priority 2022, published 2025)
